Source: ChEMBL document CHEMBL1201862, “PubChem BioAssay data set” (2004)
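In this assay, cells in 96-well plates receive the compound at five concentrations for 48 hours. Endpoints are linearly interpolated between the surrounding concentrations. Here, GI50 denotes the concentration required for 50% inhibition of growth.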 Activity calls are given as the source filed them. Cut-off read from the data, not from the text of the source: active = GI50 up to about 1.1 µM and inactive = higher.

What was measured:
Assay in all cases: NCI-60 cell line screen, 48 h
SK-MEL-28 = system: SK-MEL-28
A549 = system: A549
UACC-257 = system: UACC-257
HL-60 = system: HL-60
SK-MEL-2 = system: SK-MEL-2
SN12C = system: SN12C
ACHN = system: ACHN
MDA-MB-435 = system: MDA-MB-435
U-251 = system: U-251
CCRF-CEM = system: CCRF-CEM
NCI-H23 = system: NCI-H23
COLO 205 = system: COLO 205
NCI-H226 = system: NCI-H226
MCF7 = system: MCF7
SNB-75 = system: SNB-75
SK-MEL-5 = system: SK-MEL-5
MOLT-4 = system: MOLT-4
KM12 = system: KM12
LOX IMVI = system: LOX IMVI
NCI-H522 = system: NCI-H522

Measured: GI50

CCC(C)C1=C(OC(C)=O)[N+]2([O-])Oc3ccc(-c4c(OC(C)=O)c(OC(C)=O)c(-c5ccc(OC(C)=O)cc5)c(OC(C)=O)c4OC(C)=O)cc3OC2(C(C)CC)C(=O)N1OC(C)=O (stereo not given)
inactive: SK-MEL-28 19.5 µM | A549 18 µM | UACC-257 30.5 µM | HL-60 7.71 µM | SK-MEL-2 14.9 µM | SN12C 34.3 µM | ACHN 19.6 µM | MDA-MB-435 17.5 µM | U-251 23.8 µM | CCRF-CEM 9.57 µM | NCI-H23 20.6 µM | COLO 205 18.8 µM | NCI-H226 21.1 µM | MCF7 19.6 µM | SNB-75 14.8 µM | SK-MEL-5 11 µM | MOLT-4 11.1 µM | KM12 19.3 µM | LOX IMVI 17.2 µM | NCI-H522 8.53 µM
